Laboratory results: patent US9242959B2, “(Aza)benzhydryl ether derivatives, their process of preparation and their use as H4-receptor ligands for therapeutical applications” (BIOPROJET, priority 2012, dated 2016)

Legend:
[1] = molecular target: T1, human H4 receptor (Homo sapiens, UniProt Q9H3N8); assay: [3H]Histamine binding assay on membranes of CHO cells stably expressing human H4 receptor
T1 construct: expressed in transfected cells
Method: CHO cells stably expressing human H4 receptor were grown until sub-confluence and centrifuged at 300 g 15 minutes at 4° C. Pellets were resuspended in buffer I Tris-HCl 50 mM, MgCl2 10 mM, NaCl 140 mM, pH=7.4 supplemented by a 1/50 dilution of a mix of protease inhibitors. The obtained suspension is stirred gently and submitted to a […] exerted through a syringe. The cell lysate is then centrifuged at 300 g 15 minutes at 4° C. in order to eliminate nucleus and cell scraps. The obtained supernatant was then centrifuged at 48000 g for 30 minutes at 4° C. The final pellet is resuspended in buffer I with a potter homogenizer. Aliquots were frozen in liquid nitrogen and stored until use at −80° C. Protein content is measured by the Bradford method.
Defreezed membranes were diluted at a final concentration of 20 μg/180 μL/well in a binding buffer containing 50 mM Tris/HCl, 0.5 mM EDTA, pH=7.4 and distributed in 96 well polystyrene microplate. [^3H] […] Non specific binding was estimated in the presence of 10 μM BP1.2404 (JNJ 7777120). The reaction was terminated by filtration through GF/B filters pre-soaked 2 hours at 4° C. in 1% polyethyleneimine. Filters were rinsed 3 times with 250 μl of ice cold incubation binding buffer.
The filter-bound radioactivity was measured in a liquid scintillation counter Microbeta TRILUX® with 50 μl of scintillation fluid.
The hH4 binding investigated by use of [^3H]

[2] = molecular target: T1, human H4 receptor; assay: GTPγ[35S] binding assay on membranes of SH-SY5Y cells stably expressing human H4 receptor; format: biochemical
Method: SH-SY5Y cells stably expressing human H4 receptor are grown until sub-confluence and centrifuged at 300 g 15 minutes at 4° C. Pellets are resuspended in buffer I Tris-HCl 50 mM, MgCl2 10 mM, NaCl 140 mM, pH=7.4 supplemented by Leupeptin 10 μg/mL, Phenyl Methyl Sulphonyl Fluoride (PMSF) 0.1 mM, Aprotinin 2 μg/mL and Pepstatin 2 μM (or a 1/50 dilution of a mix of protease inhibitors). The obtained suspension is stirred gently and submitted to a […] exerted through a syringe. The cell lysate is then centrifuged at 300 g 15 minutes at 4° C. in order to eliminate nucleus and cell scraps. The obtained supernatant is then centrifuged at 48000 g for 30 minutes at 4° C. The final pellet is resuspended in buffer I with a potter homogenizer. Aliquots are frozen in liquid nitrogen and stored until use at −80° C. Protein content is measured by the Bradford method.
Defreezed membranes are diluted at a final concentration of 5 μg/180 μL/well in buffer I supplemented by GDP 10 μM and distributed in 96 well polystyrene microplate. GTPγ [^35S] labelled ligand (0.2-0.3 nM) is added for additional 30 minutes. After transfer in a Millipore GF/C HTS® microplate, the filtration of the rectional mix is followed by a three times 250 μl wash to stop the reaction.
The filter-bound radioactivity is measured in a liquid scintillation counter Microbeta TRILUX® with 50 μl of scintillation fluid.
Results are expressed with IC50 and Ki values.

T1 sequence (Q9H3N8 whole entry): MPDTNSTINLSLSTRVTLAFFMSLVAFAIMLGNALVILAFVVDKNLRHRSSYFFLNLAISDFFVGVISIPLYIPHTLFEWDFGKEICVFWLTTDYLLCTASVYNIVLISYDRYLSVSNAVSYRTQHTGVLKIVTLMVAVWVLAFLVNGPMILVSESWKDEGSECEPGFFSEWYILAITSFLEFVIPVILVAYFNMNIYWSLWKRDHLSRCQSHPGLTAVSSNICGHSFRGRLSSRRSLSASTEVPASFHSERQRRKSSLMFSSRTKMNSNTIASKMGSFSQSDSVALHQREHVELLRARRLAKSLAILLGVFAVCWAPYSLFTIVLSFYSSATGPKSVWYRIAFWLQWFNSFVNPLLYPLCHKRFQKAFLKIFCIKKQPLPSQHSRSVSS

| SMILES | melting point [°C] | Ki [1] [nM] | IC50 [2] [nM] |
| --- | --- | --- | --- |
| Cc1ccnc(C(OC2CCN(C)CC2)c2ccc(C)cc2F)c1.O=C(O)C(=O)O.O=C(O)C(=O)O (stereo not drawn) [Example 7, 2-[(2-Fluoro-4-methylphenyl)(1-methylpiperidin-4-yloxy)methyl]-4-methylpyridine, dioxalate] | 52 | < 300 | < 300 |
| Cc1ccc(C(OC2CCN(C)CC2)c2ccc(F)cn2)c(F)c1.O=C(O)C(=O)O (stereo not drawn) [Example 10, 5-Fluoro-2-[(2-fluoro-4-methylphenyl)(1-methylpiperidin-4-yloxy)methyl]pyridine, oxalate] | 133 | < 300 | < 300 |
| CN1CCC(OC(c2cccc(C#CCCCCN)c2)c2ccc(Cl)cn2)CC1.O=C(O)C(=O)O (stereo not drawn) [Example 18, 6-{3-[(5-Chloropyridin-2-yl)(1-methylpiperidin-4-yloxy)methyl]phenyl}hex-5-ynylamine, oxalate] | 136 | < 30 | < 300 |
| CN1CCC(OC(c2ccc3ccccc3c2)c2cc(OC(F)(F)F)ccc2F)CC1.O=C(O)C(=O)O (stereo not drawn) [Example 28, 4-[(2-Fluoro-5-trifluoromethoxyphenyl)naphthalen-2-ylmethoxy]-1-methylpiperidine, oxalate] | 105 | < 1000 | < 300 |
| Cc1ccc(C(OC2CCN(C)CC2)c2ccc(Cl)c(Cl)c2)c(F)c1.O=C(O)C(=O)O (stereo not drawn) [Example 30, 4-[(3,4-Dichlorophenyl)(2-fluoro-4-methylphenyl)methoxy]-1-methylpiperidine, oxalate] | 140 | < 300 | < 300 |
| CN1CCC(OC(c2ccc(Cl)c(Cl)c2)c2cc(OC(F)(F)F)ccc2F)CC1.O=C(O)C(=O)O (stereo not drawn) [Example 31, 4-[(3,4-Dichlorophenyl)(2-fluoro-5-trifluoromethoxyphenyl)methoxy]-1-methylpiperidine, oxalate] | 115 | < 300 | < 300 |
| CN1CCC(OC(c2ccccc2F)c2cc(OC(F)(F)F)ccc2F)CC1.O=C(O)C(=O)O (stereo not drawn) [Example 32, 4-[(2-Fluorophenyl)-(2-fluoro-5-trifluoromethoxyphenyl)methoxy]-1-methylpiperidine, oxalate] | 116 | < 1000 | < 1000 |
| CN1CCC(OC(c2ccc(Cl)cc2)c2cc(OC(F)(F)F)ccc2F)CC1.O=C(O)C(=O)O (stereo not drawn) [Example 33, 4-[(4-Chlorophenyl)(2-fluoro-5-trifluoromethoxyphenyl)methoxy]-1-methylpiperidine, oxalate] | 117 | < 300 | < 300 |
| CN1CCC(OC(c2ccc(Cl)cc2)c2cccc(I)c2)CC1.O=C(O)C(=O)O (stereo not drawn) [Example 35, 4-[(4-Chlorophenyl)(3-iodophenyl)methoxy]-1-methylpiperidine, oxalate] | 141 | < 30 | < 300 |
